Patent US8252832B2, “Kinesin inhibitors as cancer therapeutics” (Novartis AG, priority 2007, dated 2012)
Like-named read-outs stand apart in the source and are kept apart here.

Tested on: panel of cell lines derived from hematological malignancies
Assay: Cell survival assay, CellTiter-Glo readout after 48 hours, hematological panel
Assay type: cell-based
Parameters: key to Differential: panel average log(GI50) minus cell line log(GI50); positive = more sensitive
Experimental: Compound IIa was tested against a panel of cell lines derived from hematological malignancies in a cell survival assay using CellTiter-Glo® as a readout after 48 hours in the presence of compound. Table 18 lists the type of hematological malignancy, the name of the sample, its GI50 (concentration needed to achieve 50% growth inhibition) value in the assay, the logarithm of the GI50 (log(GI50), and the relative sensitivity of each sample (Differential). The differential is calculated by subtracting the log(GI50) for each cell line from the average log(GI50) across the entire panel (0.236 in this case); a positive value indicates a sample that is more sensitive than average, whereas a negative value indicates a sample that is less sensitive than average.

## CC(C)(C)[C@H](c1nc(-c2cc(F)ccc2F)cn1Cc1ccccc1)N(CC[C@H](N)CF)C(=O)CO [Compound IIa]
Homo sapiens, MM1.S, 48 h, MM1-S (MM), read-out: GI50
  GI50: 0.24 nM
Homo sapiens, MM1.S, 48 h, MM1-S (MM), read-out: Log(GI50) (converted)
  GI50: 0.24 nM
Homo sapiens, MOLT-3, 48 h, MOLT-3 (ALL), read-out: GI50
  GI50: 0.34 nM
Homo sapiens, MOLT-3, 48 h, MOLT-3 (ALL), read-out: Log(GI50) (converted)
  GI50: 0.335 nM
Homo sapiens, MOLT-4, 48 h, MOLT-4 (ALL), read-out: GI50
  GI50: 0.33 nM
Homo sapiens, MOLT-4, 48 h, MOLT-4 (ALL), read-out: Log(GI50) (converted)
  GI50: 0.331 nM
Homo sapiens, MV4-11, 48 h, MV4, 11 (AML), read-out: GI50
  GI50: 0.08 nM
Homo sapiens, MV4-11, 48 h, MV4, 11 (AML), read-out: Log(GI50) (converted)
  GI50: 0.0769 nM
Homo sapiens, NALM-6, 48 h, NALM-6 (ALL), read-out: GI50
  GI50: 0.14 nM
Homo sapiens, NALM-6, 48 h, NALM-6 (ALL), read-out: Log(GI50) (converted)
  GI50: 0.135 nM
Homo sapiens, NCI-H929, 48 h, H929 (MM), read-out: GI50
  GI50: 0.34 nM
Homo sapiens, NCI-H929, 48 h, H929 (MM), read-out: Log(GI50) (converted)
  GI50: 0.335 nM
Homo sapiens, OPM-2, 48 h, OPM2 (MM), read-out: GI50
  GI50: 0.14 nM
Homo sapiens, OPM-2, 48 h, OPM2 (MM), read-out: Log(GI50) (converted)
  GI50: 0.135 nM
Homo sapiens, RPMI-8226, 48 h, RPMI8226 (MM), read-out: GI50
  GI50: 0.26 nM
Homo sapiens, RPMI-8226, 48 h, RPMI8226 (MM), read-out: Log(GI50) (converted)
  GI50: 0.262 nM
Homo sapiens, RS4-11, 48 h, RS4, 11 (ALL), read-out: GI50
  GI50: 0.1 nM
Homo sapiens, RS4-11, 48 h, RS4, 11 (ALL), read-out: Log(GI50) (converted)
  GI50: 0.1 nM
Homo sapiens, Ramos, 48 h, Ramos (NHL), read-out: GI50
  GI50: 0.16 nM
Homo sapiens, Ramos, 48 h, Ramos (NHL), read-out: Log(GI50) (converted)
  GI50: 0.16 nM
Homo sapiens, SET-2, 48 h, SET-2 (AML), read-out: GI50
  GI50: 0.34 nM
Homo sapiens, SET-2, 48 h, SET-2 (AML), read-out: Log(GI50) (converted)
  GI50: 0.34 nM
Homo sapiens, SU-DHL-1, 48 h, SuDHL-1 (NHL), read-out: GI50
  GI50: 10 nM
Homo sapiens, SU-DHL-1, 48 h, SuDHL-1 (NHL), read-out: Log(GI50) (converted)
  GI50: 10 nM
Homo sapiens, SU-DHL-4, 48 h, SuDHL-4 (NHL), read-out: GI50
  GI50: 0.45 nM
Homo sapiens, SU-DHL-4, 48 h, SuDHL-4 (NHL), read-out: Log(GI50) (converted)
  GI50: 0.447 nM
Homo sapiens, SU-DHL-6, 48 h, SuDHL-6 (NHL), read-out: GI50
  GI50: 0.16 nM
Homo sapiens, SU-DHL-6, 48 h, SuDHL-6 (NHL), read-out: Log(GI50) (converted)
  GI50: 0.16 nM
Homo sapiens, SUP-B15, 48 h, SUP-B15 (ALL), read-out: GI50
  GI50: 0.19 nM
Homo sapiens, SUP-B15, 48 h, SUP-B15 (ALL), read-out: Log(GI50) (converted)
  GI50: 0.19 nM
Homo sapiens, SUP-T1, 48 h, SUP-T1 (NHL), read-out: GI50
  GI50: 5.57 nM
Homo sapiens, SUP-T1, 48 h, SUP-T1 (NHL), read-out: Log(GI50) (converted)
  GI50: 5.57 nM
Homo sapiens, U-937, 48 h, U937 (NHL), read-out: GI50
  GI50: 0.2 nM
Homo sapiens, U-937, 48 h, U937 (NHL), read-out: Log(GI50) (converted)
  GI50: 0.2 nM
HuT78 (NHL)
  Differential: 0.195
INA-6 (MM)
  Differential: 0.555
INA-6, 48 h, INA-6 (MM), read-out: GI50
  GI50: 0.12 nM
INA-6, 48 h, INA-6 (MM), read-out: Log(GI50) (converted)
  GI50: 0.12 nM
K562 (CML)
  Differential: 0.314
KM-H2 (HL)
  Differential: 0.266
KMS11 (MM)
  Differential: −0.050
KMS11-Luc (MM)
  Differential: 0.172
KMS12 (MM)
  Differential: 0.172
KMS18-Luc (MM)
  Differential: −0.080
KMS26 (MM)
  Differential: 0.254
KMS-26, 48 h, KMS26 (MM), read-out: GI50
  GI50: 0.24 nM
KMS-26, 48 h, KMS26 (MM), read-out: Log(GI50) (converted)
  GI50: 0.24 nM
Karpas-299 (NHL)
  Differential: 0.333
Karpas-299-Luc (NHL)
  Differential: −1.671
Karpas-422 (NHL)
  Differential: −1.077
Kasumi-1 (AML)
  Differential: −0.010
L363 (MM)
  Differential: 0.520
L428 (HL)
  Differential: −1.667
L-1236 (HL)
  Differential: −0.930
L-1236, 48 h, L-1236 (HL), read-out: GI50
  GI50: 3.67 nM
L-1236, 48 h, L-1236 (HL), read-out: Log(GI50) (converted)
  GI50: 3.66 nM
LP1 (MM)
  Differential: 0.322
MHH-CALL-2 (ALL)
  Differential: 0.136
MHH-CALL-3 (ALL)
  Differential: 0.333
MHH-CALL-4 (ALL)
  Differential: −1.366
MHHCALL4, 48 h, MHH-CALL-4 (ALL), read-out: GI50
  GI50: 10 nM
MHHCALL4, 48 h, MHH-CALL-4 (ALL), read-out: Log(GI50) (converted)
  GI50: 10 nM
MM1-S (MM)
  Differential: 0.254
MM1-S-Luc (MM)
  Differential: 0.272
MOLM13-Luc (AML)
  Differential: 0.279
MOLT-3 (ALL)
  Differential: 0.109
MOLT-4 (ALL)
  Differential: 0.114
MUTZ-5 (ALL)
  Differential: −1.366
MV4, 11 (AML)
  Differential: 0.747
MV4, 11Luc (AML)
  Differential: 0.613
NALM-6 (ALL)
  Differential: 0.504
NALM-19 (ALL)
  Differential: 0.355
OPM2 (MM)
  Differential: 0.504
REH (ALL)
  Differential: 0.379
RL (NHL)
  Differential: −1.667
RPMI8226 (MM)
  Differential: 0.216
RS4, 11 (ALL)
  Differential: 0.634
Ramos (NHL)
  Differential: 0.430
SEM-Luc (ALL)
  Differential: 0.458
SET-2 (AML)
  Differential: 0.102
SR (NHL)
  Differential: 0.591
SUP-B15 (ALL)
  Differential: 0.355
SUP-M2 (NHL)
  Differential: 0.379
SUP-M2, 48 h, SUP-M2 (NHL), read-out: GI50
  GI50: 0.18 nM
SUP-M2, 48 h, SUP-M2 (NHL), read-out: Log(GI50) (converted)
  GI50: 0.18 nM
SUP-T1 (NHL)
  Differential: −1.112
SuDHL-1 (NHL)
  Differential: −1.366
SuDHL-4 (NHL)
  Differential: −0.016
SuDHL-6 (NHL)
  Differential: 0.430
TANOUE (ALL)
  Differential: −1.366
U937 (NHL)
  Differential: 0.333
UKE1, 48 h, UKE-1 (AML), read-out: GI50
  GI50: 0.18 nM
UKE1, 48 h, UKE-1 (AML), read-out: Log(GI50) (converted)
  GI50: 0.175 nM
UKE-1 (AML)
  Differential: 0.391
YT (ALL)
  Differential: −1.366
